From the supplement of paper PMC5908809

Columns and labels:
[1] = system: normal primary NK cells, pool 3 (3 donors) (IL-2 2.5 ng/mL); experiment: drug sensitivity score (DSS) (DSS units); higher = more sensitive; extreme values may be limits of the assay; conditions: 72 h
[2] = system: KAI3 (IL-2 2.5 ng/mL); experiment: as above; conditions: 72 h
[3] = system: IMC-1 (IL-2 20 ng/mL); experiment: as above; conditions: 72 h
[4] = system: NK-YS (IL-2 2.5 ng/mL); experiment: as above; conditions: 72 h
[5] = system: NK-92 (IL-2 2.5 ng/mL); experiment: as above; conditions: 72 h
[6] = system: KHYG-1 (IL-2 2.5 ng/mL); experiment: as above; conditions: 72 h
[7] = system: SNK-6 (IL-2 2.5 ng/mL); experiment: as above; conditions: 72 h
[8] = system: normal primary NK cells, pool 1 (3 donors), resting (IL-2 0 ng/mL); experiment: as above; conditions: 72 h
[9] = system: NKL (IL-2 2.5 ng/mL); experiment: as above; conditions: 72 h
[10] = system: normal primary NK cells, pool 2 (3 donors) (IL-2 2.5 ng/mL); experiment: as above; conditions: 72 h
[11] = system: YT (IL-2 2.5 ng/mL); experiment: as above; conditions: 72 h
[12] = system: DERL-7 (IL-2 2.5 ng/mL); experiment: as above; conditions: 72 h
[13] = system: normal primary NK cells, pool 1 (3 donors) (IL-2 2.5 ng/mL); experiment: as above; conditions: 72 h
[14] = system: normal primary NK cells, pool 3 (3 donors) (IL-2 2.5 ng/mL); experiment: percent inhibition of viability; higher = more inhibition; conditions: 72 h
[15] = system: KAI3 (IL-2 2.5 ng/mL); experiment: as above; conditions: 72 h
[16] = system: IMC-1 (IL-2 20 ng/mL); experiment: as above; conditions: 72 h
[17] = system: NK-YS (IL-2 2.5 ng/mL); experiment: as above; conditions: 72 h
[18] = system: NK-92 (IL-2 2.5 ng/mL); experiment: as above; conditions: 72 h
[19] = system: KHYG-1 (IL-2 2.5 ng/mL); experiment: as above; conditions: 72 h
[20] = system: SNK-6 (IL-2 2.5 ng/mL); experiment: as above; conditions: 72 h
[21] = system: normal primary NK cells, pool 1 (3 donors), resting (IL-2 0 ng/mL); experiment: as above; conditions: 72 h
[22] = system: NKL (IL-2 2.5 ng/mL); experiment: as above; conditions: 72 h
[23] = system: normal primary NK cells, pool 2 (3 donors) (IL-2 2.5 ng/mL); experiment: as above; conditions: 72 h
[24] = system: YT (IL-2 2.5 ng/mL); experiment: as above; conditions: 72 h
[25] = system: DERL-7 (IL-2 2.5 ng/mL); experiment: as above; conditions: 72 h
[26] = system: normal primary NK cells, pool 1 (3 donors) (IL-2 2.5 ng/mL); experiment: as above; conditions: 72 h
[27] = system: normal NK cells expanded with K562-aAPC; experiment: drug sensitivity score (DSS) (DSS units); higher = more sensitive; extreme values may be limits of the assay; conditions: 72 h; IL-2 2.5 ng/mL
Experimental: (§1)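 Drug sensitivity and resistance testing on K562-aAPC-expanded normal NK cells: 5 concentrations (10-fold steps over a 10,000-fold range), 72 h at 37 °C, viability by CellTiter-Glo normalised to DMSO and benzethonium chloride controls; DSS from the fitted curve.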

[28] = system: normal NK cells expanded with K562-aAPC; experiment: percent inhibition of viability; higher = more inhibition; conditions: 72 h, IL-2 2.5 ng/mL
Experimental: as §1

Cc1cc(C(C)Nc2ccccc2)c2nc(N3CCOCC3)cc(=O)n2c1 (stereo not drawn) [TGX-221] (max concentration tested 10000 nM)
Conditions | drug sensitivity score
[1] | 0.14
[2] | 1.55
[3] | 0
[4] | 1.43
[5] | 6.45
[6] | 0
[7] | 0
[8] | 4.9
[9] | 2.96
[10] | 2
[11] | 2.28
[12] | 1.37
[13] | 1.93
[27] | 2.2

percent inhibition of viability [%]
Conditions | 1 nM | 10 nM | 100 nM | 1000 nM | 10000 nM
[14] | -7.93 | -8.91 | -2.84 | 3.04 | 11.7
[15] | -3.13 | -6.25 | -6.02 | 4.84 | 23.6
[16] | -6.36 | -5.05 | -4.93 | -4.5 | -0.86
[17] | -2.78 | -1.69 | -1.28 | 2.25 | 27.1
[18] | 2.02 | 4.62 | 5.66 | 32.2 | 31.8
[19] | 2.88 | 11.7 | 4.06 | 7.54 | 14.4
[20] | 31 | 21.5 | 15.7 | 15.3 | -7.08
[21] | -4.4 | 0.78 | -11.3 | 14.5 | 51.2
[22] | 2.96 | 0.41 | 10.3 | 15.5 | 28
[23] | -16.6 | -10.3 | -4.51 | 4.63 | 29.4
[24] | -1.99 | 2.32 | 1.97 | 11.6 | 28.1
[25] | 0.96 | -2.74 | -1.99 | 1.82 | 27.4
[26] | -13.5 | -0.76 | -6.33 | 4.04 | 29.7
[28] | -0.66 | 0.04 | 5.39 | 4.41 | 32.4

C=CC[C@@H]1/C=C(\C)C[C@H](C)C[C@H](OC)[C@H]2O[C@@](O)(C(=O)C(=O)N3CCCC[C@H]3C(=O)O[C@H](/C(C)=C/[C@@H]3CC[C@@H](O)[C@H](OC)C3)[C@H](C)[C@@H](O)CC1=O)[C@H](C)C[C@@H]2OC [Tacrolimus] (max concentration tested 10000 nM)
Conditions | drug sensitivity score
[1] | 0
[2] | 0
[3] | 0.7
[4] | 1.16
[5] | 2.16
[6] | 0.17
[7] | 0.32
[8] | 6.54
[9] | 0
[10] | 1.72
[11] | 1.73
[12] | 0.55
[13] | 2.93
[27] | 0

percent inhibition of viability [%]
Conditions | 1 nM | 10 nM | 100 nM | 1000 nM | 10000 nM
[14] | 10.7 | 1.86 | -0.29 | -2.25 | 1.84
[15] | -0.56 | 6.96 | 5.19 | -3.38 | 1.06
[16] | 1.61 | -1.68 | -1.5 | -2.11 | 23.3
[17] | 1.38 | -3.09 | 1.86 | 5.94 | 19.8
[18] | -18.9 | -10.1 | -13.5 | 5.35 | 30.1
[19] | -2.54 | -4.56 | 1.9 | 0.69 | 13.5
[20] | 6.17 | -4.96 | -13.1 | -0.42 | 16.6
[21] | -2.76 | -12.4 | 9.06 | 17.2 | 71.7
[22] | -8.22 | -6.4 | -3.18 | 8.38 | 3.72
[23] | 6.61 | 4.19 | 3.62 | 3.15 | 28.9
[24] | 0.78 | -1.87 | 1.16 | 5.77 | 24.4
[25] | -6.89 | -0.55 | -1.59 | -6.35 | 23
[26] | -2.12 | 0.6 | 4.89 | 4.45 | 43.2
[28] | -12.2 | -4.97 | -9.06 | -4.26 | -5.39
